# According to patent US8258114B2, “Modulation of glucose-6-phosphatase translocase expression” (Isis Pharmaceuticals, Inc., priority 2004, dated 2012):
# Read-outs that look alike come from different tables or passages of the source.
# What was measured:
# db/db mice = assay: Fed plasma glucose in db/db mice, dose-response study (Example 11); type: in vivo, mouse
# Method: (§1) Seven-week old male C57B1/6J-Lepr db/db mice (Jackson Laboratory, Bar Harbor, Me.) were fed a diet with a fat content of about 14% (Formulab Diet 5008) and were subcutaneously injected with ISIS 116847 (SEQ ID NO: 143), ISIS 141923 (SEQ ID NO: 144), or ISIS 148985 (SEQ ID NO: 118), an antisense inhibitor of glucose-6-phosphatase translocase, […] […] Saline-injected animals served as controls. 48 hours after the eighth and final dose was administered, mice were sacrificed and target levels were evaluated in liver. RNA isolation and target mRNA expression level quantitation were performed as described by other examples herein.
# For seven animals per treatment group, plasma glucose was measured with routine clinical analyzer instruments (e.g. Olympus Clinical Analyzer). Data are expressed as averages per treatment group.
# [1] = system: glucose-6-phosphatase translocase mRNA; assay: Target mRNA reduction in liver of db/db mice, dose-response study; type: in vivo, mouse
# Method: Seven-week old male C57B1/6J-Lepr db/db mice (Jackson Laboratory, Bar Harbor, Me.) were fed a diet with a fat content of about 14% (Formulab Diet 5008) and were subcutaneously injected with ISIS 116847 (SEQ ID NO: 143), ISIS 141923 (SEQ ID NO: 144), or ISIS 148985 (SEQ ID NO: 118), an antisense inhibitor of glucose-6-phosphatase translocase, at a dose of 25 mg/kg two times per week for 4 weeks. […] Saline-injected animals served as controls. 48 hours after the eighth and final dose was administered, mice were sacrificed and target levels were evaluated in liver. RNA isolation and target mRNA expression level quantitation were performed as described by other examples herein.
# Glucose-6-phosphatase translocase mRNA levels in db/db mouse livers were measured at the end of study using RIBOGREEN™ RNA quantification reagent (Molecular Probes, Inc. Eugene, Oreg.) as taught in previous examples above. Data are expressed as the average of 5 animals per treatment group. […] Target mRNA levels were reduced by approximately 21% by ISIS 148985. […] Therefore, antisense inhibitors of glucose-6-phosphatase translocase reduced target mRNA levels in the liver of db/db mice, and ISIS 149008 did so in a dose-dependent manner.
# [2] = Liver triglycerides and glycogen stores in db/db mice (Table 8); type: in vivo, mouse
# Method: as §1
# Patients with the human glycogen storage disease type 1b have mutations in the glucose-6-phosphatase translocase gene. Because one manifestation of these mutations is a defect in hepatic glycogen deposition, the db/db mice were further evaluated at the end of the treatment period for liver glycogen stores. Tissue glycogen levels were measured using the Glucose Trinder Reagent (Sigma-Aldrich, St. Louis, Mo.). Tissue triglyceride levels were measured using a Triglyceride GPO Assay from Roche Diagnostics (Indianapolis, Ind.). Liver triglyceride levels were used to assess hepatic steatosis, or accumulation of lipids in the liver. Hepatic steatosis was also assessed by routine histological analysis of frozen liver tissue sections stained with oil red 0 stain, which is commonly used to visualize lipid deposits, and counterstained with hematoxylin and eosin, to visualize nuclei and cytoplasm, respectively. Data are presented in Table 8 as the averages from 5 animals per treatment group.
# [3] = system: glucose-6-phosphatase translocase mRNA; assay: Target mRNA reduction in liver of ob/ob mice; type: in vivo, mouse; conditions: 25 mg/kg s.c. twice weekly, eight doses
# Method: Seven-week old male C57B1/6J-Lep ob/ob mice (Jackson Laboratory, Bar Harbor, Me.) were fed a diet with a fat content of about 22% and were subcutaneously injected with oligonucleotides at a dose of 25 mg/kg two times per week. A total of eight doses were administered. Glucose-6-phosphatase translocase antisense oligonucleotides used were ISIS 148985 (SEQ ID NO: 118) and ISIS 149008 (SEQ ID NO: 141). […]; incorporated herein as SEQ ID NO: 143), targeted to mouse PTEN, was used as a positive control. Saline-injected animals served as negative controls. […] Glucose-6-phosphatase translocase mRNA levels in ob/ob mouse livers were measured at the end of the study using RIBOGREENTM RNA quantification reagent (Molecular Probes, Inc. Eugene, Oreg.) as taught in previous examples above.
# [4] = mouse, in vivo, sc, 25 mg/kg
# Method: Seven-week old male C57B1/6J-Lep ob/ob mice (Jackson Laboratory, Bar Harbor, Me.) were fed a diet with a fat content of about 22% and were subcutaneously injected with oligonucleotides at a dose of 25 mg/kg two times per week. A total of eight doses were administered. Glucose-6-phosphatase translocase antisense oligonucleotides used were ISIS 148985 (SEQ ID NO: 118) and ISIS 149008 (SEQ ID NO: 141). ISIS 116847 ([…]; incorporated herein as SEQ ID NO: 143), targeted to mouse PTEN, was used as a positive control. Saline-injected animals served as negative controls. Animals were sacrificed 48 hours after the last dose of oligonucleotide was administered, and liver triglycerides, liver glycogen, and target reduction in liver were measured.
# Hepatic steatosis, or buildup of lipids in the liver, was assessed by measuring the liver triglyceride content. Tissue triglycerides were measured with a Triglyceride GPO assay from Roche Diagnostics (Indianapolis, Ind.). Data are presented as averages from 5 animals per treatment group. Triglycerides were approximately 178 mg/g for saline treated mice, 162 mg/g for ISIS 149008-treated mice, 168 mg/g for ISIS 148985-treated mice, and 187 mg/g for ISIS 116847 (PTEN)-treated mice. Thus liver triglycerides were not increased in antisense-treated animals.
# Tissue glycogen was measured using the Glucose Trinder Reagent (Sigma-Aldrich, St. Louis, Mo.). Glycogen levels of mice treated with saline alone were approximately 31 mg/g of tissue. Levels in mice treated with the positive control antisense compound ISIS 116847, targeted to PTEN, had levels of approximately 25 mg/g. Mice treated with ISIS 149008 or 148985, the antisense inhibitors of glucose-6-phosphatase translocase, had glycogen levels of approximately 31 mg/g and 30 mg/g, respectively.
# [5] = 25 mg/kg twice weekly, week 0, saline 280
# [6] = 25 mg/kg twice weekly, week 2, saline 517
# [7] = 25 mg/kg twice weekly, week 4, saline 510
# [8] = 25 mg/kg twice weekly for 4 weeks
# [9] = 25 mg/kg twice weekly 4 weeks (25 mg/mL [sic]), saline 25
# [10] = 25 mg/kg twice weekly 4 weeks (25 mg/mL [sic]), saline 47
Sequence,fed plasma glucose (db/db mice; [5]),fed plasma glucose (db/db mice; [6]) [mg/dL],fed plasma glucose (db/db mice; [7]) [mg/dL],"Glucose-6-phosphatase translocase mRNA levels in liver, reduction compared to saline [1, 8]","Liver Triglycerides [2, 9] [mg/g]","Liver Glycogen [2, 10] [mg/g]","Glucose-6-phosphatase translocase mRNA levels in liver, reduction compared to saline [3]",Liver Triglycerides [4] [mg/g],Liver glycogen levels [4],also measured
"CCTTCCCTGAAGGTTCCTCC (chemistry not given here) [ISIS 141923, scrambled control oligonucleotide, negative control, reference compound]",approximately 287 mg/dL,~456,~510,approximately 1%,30,43,–,–,–,–
"CTGCTAGCCTCTGGATTTGA (chemistry not given here) [ISIS 116847, positive control oligonucleotide targeted to mouse PTEN, reference compound]",approximately 282 mg/dL,~291,~224,approximately 27%,67,39,approximately 36%,~187,approximately 25 mg/g,–
GCTCCATAGCGAGGACTCGA (chemistry not given here) [ISIS 148985],approximately 289 mg/dL,~394,~443,approximately 21%,–,47,approximately 52%,~168,~30 mg/g,–
TATACAAGTCGGTTTGCCCT (chemistry not given here) [ISIS 149008],approximately 286 mg/dL,~359,~299,approximately 81%,58,45,approximately 87%,~162,approximately 31 mg/g,"fed plasma glucose (db/db mice; 6.25 mg/kg twice weekly, week 0): approximately 289 mg/dL; fed plasma glucose (db/db mice; 6.25 mg/kg twice weekly, week 2): ~397 mg/dL; fed plasma glucose (db/db mice; 6.25 mg/kg twice weekly, week 4): ~478 mg/dL; fed plasma glucose (db/db mice; 12.5 mg/kg twice weekly, week 0): approximately 283 mg/dL; fed plasma glucose (db/db mice; 12.5 mg/kg twice weekly, week 2): ~411 mg/dL; fed plasma glucose (db/db mice; 12.5 mg/kg twice weekly, week 4): ~203 mg/dL; Glucose-6-phosphatase translocase mRNA levels in liver, reduction compared to saline ([1]; 6.25 mg/kg twice weekly for 4 weeks): approximately 45%; Glucose-6-phosphatase translocase mRNA levels in liver, reduction compared to saline ([1]; 12.5 mg/kg twice weekly for 4 weeks): approximately 69%; Liver Glycogen ([2]; dose 12.5 mg/mL [sic]): 45 mg/g; Liver Triglycerides ([2]; dose 12.5 mg/mL [sic]): 41 mg/g; Liver Glycogen ([2]; dose printed 6 mg/mL): 48 mg/g; Liver Triglycerides ([2]; dose printed 6 mg/mL): 33 mg/g"
